Source: patent US20250144088A1, “INHALABLE FORMULATION FOR USE IN THE TREATMENT OF BACTERIAL LUNG INFECTIONS” (priority 2022, published 2025)
Where two headings read alike, the source gives them in different places.

Tests used:
J774 cells = assay: High content analysis of drug-induced phospholipidosis (DIPL) and cytotoxicity in macrophage-like cells; type: cell-based; details: mouse, 48 h
Excerpt: FIG. 1: A macrophage-like cell line (J774 cells) were used to screen whether three different nanocarrier formulations differing in their lipid compositions (1: DOPC/Chol, 2: DMPC/DMPG or 3: pegylated DOPC/Chol) i) are cytotoxic to this cell type and protect the cells from BDQ-induced DIPL. A heat map was used to depict the number of cells with DIPL-induced abnormalities (first two left-hand columns) and cytotoxicity markers (columns on the right). Black fields indicate that <10% of the cells in the treatment groups were abnormal, whereas grey-to-white colored fields denote an increasing proportion of cells with abnormalities. The heatmap at the top depicts the positive control group for DIPL, which consisted of four known CADs (amiodarone, amytryptiline, azithromycin, and BDQ) administered to the cells in solution (no formulation). […] The numbers on the left-hand side of each heatmap denote the CAD dose (μM) and the total lipid concentration (μg/mL) added to each well. The values depicted the mean % abnormal cells from six replicate formulations tested in four different cell passage numbers.
High content analysis was initially used as a rapid screening tool to evaluate interactions between lipid-based nanocarrier (TargoSphere©) formulations applied as liquid dispersions and macrophage cells. […] Two of the formulations (DOPC/Chol and DMPG/DMPC) contained Fuc-C4-Chol as a C-type lectin receptor targeting ligand (+CLR). Four concentrations ranging from 15-700 μg/mL (total solid content) were tested. After an incubation time of 48 h three assays with different fluorescence markers were performed. […]
For high content analysis, images were documented using the Cytation™ 5 Cell Imaging Multi-Mode Reader (BioTek, Bad Friedrichshall, Germany) with a 40× objective in standard 2D imaging mode. For each well 6 pictures were analysed using the Gen5 software (BioTek, Bad Friedrichshall, Germany). […] For both dyes the fluorescence intensity values were measured. […] Area and size of the vacuoles were identified and measured based on negative staining. […]

[1] = In vivo pharmacokinetics, current example (i.v., i.n., p.o.), healthy Balb-c mice
Experimental: Values represent the mean of n=6 animals per time point.
After 0.5, 3, 24, 48, 72 and 96 hours, the animals were sacrificed and samples were taken from the blood plasma, lung tissues, lung epithelial fluid and cellular fraction of the lung epithelial fluid. […]

[2] = mouse, in vivo, po, 30 mg/kg; cited from earlier work
[3] = p.o. 25 mg/kg, HP-β-CD solution, Irwin, 2016, male Balb/c mice, cited from earlier work
[4] = test system: Mycobacterium tuberculosis strains; details: cited from earlier work
[5] = Balb-c, mouse, in vivo, po, 25 mg/kg

COc1nc2ccc(Br)cc2cc1[C@@H](c1ccccc1)[C@@](O)(CCN(C)C)c1cccc2ccccc12 [BDQ, bedaquiline]
cells exhibiting abnormal phospholipid accumulation (J774 cells): ~100%
tmax ([1]; BDQ in plasma, p.o. 25 mg/kg, drug suspension, current example): 0.5 h
Kp ([1]; Balb-c, mouse, in vivo): 62
increase in lung exposure after intrapulmonary administration ([1]; Balb-c, mouse, in vivo): 3 fold
Kp ([1]; Balb-c, mouse, in vivo, iv): 15
Kp ([1]; Balb-c, mouse, in vivo, po): 11
Tmax [1, 5]: 3 h
tmax [1, 5]: 24 h
tmax [2]: 24 h
tmax ([3]; BDQ in lung tissue): 8 h
Cmax ([3]; BDQ in plasma): 2900 ng/mL
tmax ([3]; BDQ in plasma): 0.5 h

CC[C@H]1OC(=O)[C@H](C)[C@@H](O[C@H]2C[C@@](C)(OC)[C@@H](O)[C@H](C)O2)[C@H](C)[C@@H](O[C@@H]2O[C@H](C)C[C@H](N(C)C)[C@H]2O)[C@](C)(O)C[C@@H](C)CN(C)[C@H](C)[C@@H](O)[C@]1(C)O [azithromycin]
cells exhibiting abnormal phospholipid accumulation (J774 cells): ~100%

CNCCC(O)(c1cccc2ccccc12)C(c1ccccc1)c1cc2cc(Br)ccc2nc1OC (stereo not drawn) [M2, N-desmethyl-BDQ]
attenuated activity against Mycobacterium tuberculosis strains compared to BDQ [4]: 3- to 5 fold

CCCCc1oc2ccccc2c1C(=O)c1cc(I)c(OCCN(CC)CC)c(I)c1 [amiodarone]
cells exhibiting abnormal phospholipid accumulation (J774 cells): ~100%
